The subject of test [1] is Staphylococcus aureus. In words: Compound tested to inhibit staphylococcal AgrC-2. The class given is functional, organism-based.
Test [2] deals with Staphylococcus aureus. Nature of the test: Compound tested to inhibit staphylococcal AgrC-1. In kind it is functional, organism-based.

Structures are written as SMILES. Positions of bridges follow the written chain, without caps; N, C: chain ends. Non-standard residues stand in square brackets, D forms with d. Residues, ends and D or L forms follow the SMILES beside them. Abu = CC[C@H](N)C(=O)O

The IC50 is the point on the concentration scale where inhibition reaches its midpoint. Read a high IC50 as a need for much substance.

In the case of `CC[C@H](C)[C@@H]1NC(=O)[C@@H](Cc2ccccc2)NC(=O)[C@H](C)NC(=O)[C@H](NC(=O)[C@@H](NC(=O)[C@H](CO)NC(=O)CCCOc2ccc(Cc3ccccc3)cc2)[C@@H](C)O)CSC(=O)[C@H](CCSC)NC1=O`, the concentration for half-maximal inhibition (IC50) with Staphylococcus aureus [1] is 19 nM; with Staphylococcus aureus [2], 295 nM.

For `CC[C@H](C)[C@H]1NC(=O)[C@@H](Cc2ccccc2)NC(=O)[C@@H](C)NC(=O)[C@H](NC(=O)[C@@H](NC(=O)[C@H](CO)NC(=O)CCCOc2ccc(C(=O)c3ccccc3)cc2)[C@@H](C)O)CSC(=O)[C@@H](CCSC)NC1=O`, the IC50 with Staphylococcus aureus [1] amounted to 18 nM; in the test with Staphylococcus aureus [2], 303 nM.

`CC[C@H](C)[C@@H]1NC(=O)[C@H](Cc2ccccc2)NC(=O)[C@H](C)NC(=O)[C@@H](NC(=O)[C@@H](NC(=O)[C@H](CO)NC(=O)[C@@H](N)Cc2ccc(O)cc2)[C@@H](C)O)CSC(=O)[C@H](CCSC)NC1=O` (H-YSTCAFIM; thioester 4-C): the IC50 with Staphylococcus aureus [1] was found to be 4 nM; in the test on Staphylococcus aureus [2], 21 nM.

In the case of `CC[C@@H]1NC(=O)[C@@H](NC(=O)[C@@H](NC(=O)[C@H](CO)NC(=O)[C@@H](N)Cc2ccc(O)cc2)[C@@H](C)O)CSC(=O)[C@H](CCSC)NC(=O)[C@H]([C@@H](C)CC)NC(=O)[C@H](Cc2ccccc2)NC1=O` (H-YSTC[Abu]FIM; thioester 4-C), the 50% inhibitory concentration (IC50) stood at 2.8 nM in the test on Staphylococcus aureus [1] and 137 nM in the test with Staphylococcus aureus [2].

The values are drawn from ChEMBL document CHEMBL1136121, “Side-chain-to-tail thiolactone peptide inhibitors of the staphylococcal quorum-sensing system” (Bioorg Med Chem Lett, 2003).
